Measured values reported in patent US20220401564A1 (DANA-FARBER CANCER INSTITUTE, INC., priority 2019, published 2022).
“Also recorded” adds a separate entry of the source.

Tests used:
[1] = system: other identified HDAC proteins; assay: Change in cellular protein abundance (TMT proteomics) in Kelly cells; assay type: cell-based, human; conditions: 1 μM, 5 hours, vs DMSO
Experimental: (§1) Lysis buffer (8 M Urea, 50 mM NaCl, 50 mM 4-(2hydroxyethyl)-1-piperazineethanesulfonic acid (EPPS) pH 8.5, protease and phosphatase inhibitors from Roche®) were added to the cell pellets and homogenized by 20 passes through a 21 gauge (1.25 in. long) needle to achieve a cell lysate with a protein concentration between 1-4 mg mL-1. A micro-BCA assay (Pierce™) was used to determine the final protein concentration in the cell lysate. 200 μg of protein for each sample were reduced and alkylated as described in Donovan et al., Elife 7:e38430 (2018).
Proteins were precipitated using methanol/chloroform. Four volumes of methanol were added to the cell lysate, followed by one volume of chloroform, and finally three volumes of water. The mixture was vortexed and centrifuged to separate the chloroform phase from the aqueous phase. […]
Anhydrous ACN was added to each peptide sample to a final concentration of 30% v/v, and labeling was induced with the addition of TMT reagent to each sample at a ratio of 1:4 peptide:TMT label. […] The sample channels were combined at a 1:1:1:1:1:1:1:1:1:1:1 ratio, desalted using Cis solid phase extraction cartridges (Waters®) and analyzed by LC-MS for channel ratio comparison. Samples were then combined using the adjusted volumes determined in the channel ratio analysis and dried down in a speed vacuum. […]

VHL = biological target: T1, VHL (Homo sapiens, UniProt P40337); assay: Cellular VHL engagement assay (BRD4BD2-GFP / mCherry reporter cells); assay type: cell-based; conditions: with 250 nM AT1, 5 h
T1 construct: Cells stably expressing the BRD4BD2-GFP with mCherry reporter (40) were seeded; endogenous in cells

HDAC3 = HDAC3 (Homo sapiens, UniProt O15379); assay: Change in cellular protein abundance (TMT proteomics) in Kelly cells; assay type: cell-based; set-up: relative change in relative protein abundance with treatment of Kelly cells; endogenous in cells; host or cells: Kelly cells; conditions: for HDAC3 protein levels, relative protein abundance compared to DMSO control: scatter plots FIG. 1 and FIG. 3
Experimental: as §1
Proteins were precipitated using methanol/chloroform. Four volumes of methanol were added to the cell lysate, followed by one volume of chloroform, and finally three volumes of water. The mixture was vortexed and centrifuged to separate the chloroform phase from the aqueous phase. The precipitated protein was washed with three volumes of methanol, centrifuged and the resulting washed precipitated protein was allowed to air dry. The precipitated protein was resuspended in 4 M Urea, 50 mM HEPES pH 7.4, followed by dilution to 1 M urea with the addition of 200 mM EPPS, pH 8. Proteins were first digested with LysC (1:50; enzyme:protein) for 12 hours at room temperature. The LysC digestion was diluted to 0.5 M Urea with 200 mM EPPS pH 8 followed by digestion with trypsin (1:50; enzyme:protein) for 6 hours at 37° C. Tandem mass tag (TMT) reagents (Thermo Fisher Scientific) were dissolved in anhydrous acetonitrile (ACN) according to manufacturer's instructions.
Anhydrous ACN was added to each peptide sample to a final concentration of 30% v/v, and labeling was induced with the addition of TMT reagent to each sample at a ratio of 1:4 peptide:TMT label. The 10-plex labeling reactions were performed for 1.5 hours at room temperature and the reaction quenched by the addition of hydroxylamine to a final concentration of 0.3% for 15 minutes at room temperature. The sample channels were combined at a 1:1:1:1:1:1:1:1:1:1:1 ratio, desalted using Cis solid phase extraction cartridges (Waters®) and analyzed by LC-MS for channel ratio comparison. Samples were then combined using the adjusted volumes determined in the channel ratio analysis and dried down in a speed vacuum. The combined sample was then resuspended in 1% formic acid, and acidified (pH 2-3) before being subjected to desalting with C18 SPE (Sep-Pak®, Waters®). Samples were then offline fractionated into 96 fractions by high pH reverse-phase HPLC (Agilent® LC1260) through an aeris peptide xb-c18 column (Phenomenex®) with mobile phase A containing 5% acetonitrile and 10 mM NH4HCO3 in LC-MS grade H2O, and mobile phase B containing 90% acetonitrile and 10 mM NH4HCO3 in LC-MS grade H2O (both pH 8.0). The 96 resulting fractions were then pooled in a non-continuous manner into 24 fractions and these fractions were used for subsequent mass spectrometry analysis.
Data were collected using an Orbitrap Fusion™ Lumos™ mass spectrometer (Thermo Fisher Scientific, San Jose, Calif., USA) coupled with a Proxeon EASY-nLC™ 1200 LC pump (Thermo Fisher Scientific). Peptides were separated on an EasySpray™ ES803 75 μm inner diameter microcapillary column (ThermoFisher Scientific).
Each analysis used an MS3-based TMT method as described previously. The data were acquired using a mass range of m z 340-1350, resolution 120,000, automatic gain control (AGC) target 1×10^6, maximum injection time 100 ms, dynamic exclusion of 120 seconds for the peptide measurements in the Orbitrap Fusion™ Lumos™ mass spectrometer. Data dependent MS2 spectra were acquired in the ion trap with a normalized collision energy (NCE) set at 55%, AGC target set to 1.5×10^5 and a maximum injection time of 150 ms. […]

Sequence of HDAC3 (O15379 whole entry): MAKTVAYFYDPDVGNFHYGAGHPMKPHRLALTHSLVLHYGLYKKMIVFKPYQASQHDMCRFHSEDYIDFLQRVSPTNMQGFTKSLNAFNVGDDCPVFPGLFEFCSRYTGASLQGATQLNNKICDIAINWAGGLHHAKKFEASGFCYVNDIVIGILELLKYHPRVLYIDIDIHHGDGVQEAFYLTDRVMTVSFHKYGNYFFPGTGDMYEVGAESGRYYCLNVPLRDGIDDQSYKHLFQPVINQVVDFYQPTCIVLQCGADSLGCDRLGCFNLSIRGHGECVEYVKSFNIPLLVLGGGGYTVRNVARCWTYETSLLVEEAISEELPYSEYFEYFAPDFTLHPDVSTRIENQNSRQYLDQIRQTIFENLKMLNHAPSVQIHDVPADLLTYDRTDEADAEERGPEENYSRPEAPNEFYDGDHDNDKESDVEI
T1 sequence (P40337 whole entry, species assumed): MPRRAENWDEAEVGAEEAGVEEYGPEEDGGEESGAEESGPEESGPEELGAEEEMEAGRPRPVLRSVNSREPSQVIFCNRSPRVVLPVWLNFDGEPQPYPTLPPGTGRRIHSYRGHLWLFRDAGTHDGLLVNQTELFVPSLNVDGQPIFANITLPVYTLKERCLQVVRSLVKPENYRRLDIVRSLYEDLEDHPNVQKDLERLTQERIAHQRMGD

Row | SMILES | cellular protein levels of the other identified HDAC proteins (heat map FIG. 2) [1] | IC50 (VHL) [µM] | cellular HDAC3 protein levels, change in relative protein abundance (heat map FIG. 2) (HDAC3; 1 μM, 5 hours, vs DMSO) | HDAC3 protein levels, relative protein abundance compared to DMSO control (HDAC3)
1 | Cc1ncsc1-c1ccc([C@H](C)NC(=O)[C@@H]2C[C@@H](O)CN2C(=O)[C@@H](NC(=O)CCOCCOCCN(CCc2c[nH]c3ccccc23)Cc2ccc(/C=C/C(=O)NO)cc2)C(C)(C)C)cc1 [Compound 2, (2S,4R)-1-((S)-14-(tert-butyl)-3-(4-((E)-3-(hydroxyamino)-3-oxoprop-1-en-1-yl)benzyl)-1-(1H-indol-3-yl)-12-oxo-6,9-dioxa-3,13-diazapentadecan-15-oyl)-4-hydroxy-N—((S)-1-(4-(4-methylthiazol-5-yl)phenyl)ethyl)pyrrolidine-2-carboxamide] | did not affect | 11.7 | down-regulation | significant and selective reduction
2 | Cc1ncsc1-c1ccc(CNC(=O)[C@@H]2C[C@@H](O)CN2C(=O)[C@@H](NC(=O)C2(F)CC2)C(C)(C)C)c(OCCCCCN(CCc2c[nH]c3ccccc23)Cc2ccc(/C=C/C(=O)NO)cc2)c1 [Compound 7, (2S,4R)—N-(2-((5-((2-(1H-indol-3-yl)ethyl)(4-((E)-3-(hydroxyamino)-3-oxoprop-1-en-1-yl)benzyl)amino)pentyl)oxy)-4-(4-methylthiazol-5-yl)benzyl)-1-((S)-2-(1-fluorocyclopropane-1-carboxamido)-3,3-dimethylbutanoyl)-4-hydroxypyrrolidine-2-carboxamide] | – | 9.4 | – | promote degradation; also recorded: significant and selective reduction
